According to PMC2639596, “Antimicrobial peptides effectively kill a broad spectrum of Listeria monocytogenes and Staphylococcus aureus strains independently of origin, sub-type, or virulence factor expression” (BMC Microbiology, 2008):
Read-outs that look alike come from different tables or passages of the source.

What was measured:
Listeria monocytogenes = conditions: for MIC (MEC): radial diffusion, MHB/1% agarose, overnight, 37°C
Method: (§1) The MEC of HBD-3 was assayed on a sub-selection of strains using a radial diffusion assay with some modifications. In brief, MHB/1% agarose was supplemented with glucose to an end-concentration of 0.1% (w/V) to enhance the growth of L. monocytogenes and improve the visualization of the inhibition zones. […] Following solidification on a leveling table, 1 mm wells were punched with a Pasteur pipette. Two-fold dilutions of HBD-3 were prepared in 0.01% acetic acid/0.1% bovine serum albumin to a concentration range of 0.25–256 μg/ml and 2 μl was added to each well. […] Each strain was tested in two independent trials.
(§2) The bacteria were prepared and mixed with MHB/1% agarose as described above and 50 ml gel was poured into 140 mm Petri dishes. The gel was allowed to solidify and 3 mm wells were punched. […] The plates were incubated overnight at 37°C and the MEC was read as described above.

Staphylococcus aureus = conditions: for MIC (MEC): radial diffusion, MHB/1% agarose, overnight, 37°C
Method: as §1, §2

OO [hydrogen peroxide]
MEC values against L. monocytogenes (range over strains) (Listeria monocytogenes; radial diffusion assay, all strains tested): 0.12–0.94 % (V/V)
MIC (MEC) (Listeria monocytogenes; strain 2275 (EGD dps del)): 0.94 % (V/V)
MIC (MEC) (Listeria monocytogenes; strain 2307 (EGD resD del)): 0.12 % (V/V)
MIC (MEC) (Listeria monocytogenes; strain 2315 (EGD sigB del)): 0.94 % (V/V)
MIC (MEC) (Listeria monocytogenes; strain 2317 (EGD prfA del)): 0.94 % (V/V)
MIC (MEC) (Listeria monocytogenes; strain 2374 (EGD perR ins)): 0.94 % (V/V)
MIC (MEC) (Listeria monocytogenes; strain 2375 (EGD perR del)): 0.94 % (V/V)
MIC (MEC) (Listeria monocytogenes; strain 4239): 0.23 % (V/V)
MIC (MEC) (Listeria monocytogenes; strain 4446): 0.47 % (V/V)
MIC (MEC) (Listeria monocytogenes; strain 4459): 0.23 % (V/V)
MIC (MEC) (Listeria monocytogenes; strain 4666): 0.18 % (V/V)
MIC (MEC) (Listeria monocytogenes; strain 6895): 0.35 % (V/V)
MIC (MEC) (Listeria monocytogenes; strain 7291): 0.47 % (V/V)
MIC (MEC) (Listeria monocytogenes; strain 7418): 0.18 % (V/V)
MIC (MEC) (Listeria monocytogenes; strain EGD (wildtype)): 0.47 % (V/V)
MIC (MEC) (Listeria monocytogenes; strain H13-1): 0.94 % (V/V)
MIC (MEC) (Listeria monocytogenes; strain LO28 (wildtype)): 0.47 % (V/V)
MIC (MEC) (Listeria monocytogenes; strain La22): 0.23 % (V/V)
MIC (MEC) (Listeria monocytogenes; strain La111): 0.94 % (V/V)
MIC (MEC) (Listeria monocytogenes; strain M103-1): 0.94 % (V/V)
MIC (MEC) (Listeria monocytogenes; strain N53-1): 0.47 % (V/V)
MIC (MEC) (Listeria monocytogenes; strain No40-1): 0.47 % (V/V)
MIC (MEC) (Listeria monocytogenes; strain O57): 0.47 % (V/V)
MIC (MEC) (Listeria monocytogenes; strain R479a): 0.47 % (V/V)
MIC (MEC) (Listeria monocytogenes; strain V518a): 0.94 % (V/V)
MEC values against S. aureus (range over strains) (Staphylococcus aureus): 0.12–0.47 % (V/V)
MIC (MEC) (Staphylococcus aureus; strain ΔdltA (Sa113 dltA ins)): 0.23 % (V/V)
MIC (MEC) (Staphylococcus aureus; strain ΔmprF (Sa113 mprF del)): 0.12 % (V/V)
